Experimental data as given in paper PMC3722775, “1-Aryl-3-[4-(thieno[3,2-d]pyrimidin-4-yloxy)phenyl]ureas as VEGFR-2 Tyrosine Kinase Inhibitors: Synthesis, Biological Evaluation, and Molecular Modelling Studies” (BioMed Research International, 2013).

Experiments:
[1] = tested on: phosphorylated (activated) VEGFR-2; assay: Western blotting of phosphorylated (active) and total VEGFR-2 in HUVECs; assay type: cell-based, human; details: 1 μM, normalized with total VEGFR-2
Procedure: (§1) Human umbilical vein endothelial cells (HUVECs) were obtained from the ScienceCell Research Labs (San Diego, CA, USA), HUVECs were seeded on plates coated with 0.2% gelatin (Sigma-Aldrich, Sintra, Portugal) and cultured in M199 medium (Sigma-Aldrich, Sintra, Portugal) supplemented with 20% fetal bovine serum (FBS) (Invitrogen Life Technologies, Scotland, UK), 1% penicillin/streptomycin (Invitrogen Life Technologies), 0.01% heparin (Sigma-Aldrich), and […] endothelial cell growth supplement (Biomedical Technologies Inc., MA, USA) and maintained at 37°C in a humidified 5% carbon dioxide atmosphere. Cells were kept between passages 3 and 8 for every experiment. The test compounds were dissolved in DMSO and added to cell cultures at a concentration of 0.1–10 μM. Incubations were performed for 24 h in medium supplemented with 2% FBS, 1% penicillin/streptomycin, and 60 ng/mL of the vascular endothelial growth factor (Sigma-Aldrich, Sintra, Portugal). Control cells were incubated with vehicle (DMSO at 0.1% in every culture).
Proteins were isolated from HUVEC lysates using RIPA (Chemicon International, CA, USA). Proteins were quantified using a spectrophotometer (Jenway, 6405 UV/vis, Essex, UK), and 20 μg of protein were subjected to 8% SDS-PAGE with a 5% stacking gel. After electrophoresis, proteins were blotted into a Hybond nitrocellulose membrane (Amersham, Arlington, VA, USA). Immunodetection for total VEGFR-2 (1 : 1000; Cell Signaling, MA, USA), phosphorylated (activated) VEGFR-2 (1 : 750; Santa Cruz Biotechnology, CA, USA), and β-actin (1 : 3000; Abcam, Cambridge, UK) was accomplished with enhanced chemiluminescence (ECL kit, Amersham, Arlington, USA). […] The relative intensity of each protein blotting analysis was measured using a computerized software program (Bio-Rad, CA, USA), and the expression of activated and total VEGFR-2 were normalized with total VEGFR-2 and β-actin bands, respectively, to compare the expression of proteins in different treatment groups.

HUVECs [2] = assay: TUNEL cell apoptosis assay in HUVECs; assay type: cell-based, human; details: 24 h; for Effect on apoptosis (TUNEL): 0.1, 0.5 and 1 μM, statistical significance only for 2a at the highest concentration
Procedure: as §1
HUVECs (6 × 10^4 cells/mL) were grown for 24 h on glass coverslips and incubated with different concentrations (0.1–1 μM) of the tested compounds. TUNEL assay was performed using the In Situ Cell Death Detection kit (Roche Diagnostics, Mannheim, Germany), according to the manufacturer's instruction and as previously reported. Immunofluorescence was visualized under a fluorescence microscope (Olympus, BH-2, UK). The percentage of stained cells was evaluated by counting the cells stained with TUNEL (apoptotic cells) divided by the total number of nuclei counterstained with DAPI (Invitrogen, CA, USA) at a 200x magnification field. One thousand nuclei were evaluated. Results were expressed as percentage of control (100%).

VEGFR-2 = target: T1, VEGFR-2 (Homo sapiens, UniProt P35968); assay: VEGFR-2 enzymatic inhibition assay (Z'-LYTE-Tyr1 Peptide FRET kit); assay type: biochemical; details: enzymatic FRET-based assay, 10 μM ATP; four separate determinations
T1 construct: purchased Invitrogen
T1 sequence (P35968 834-1162 limits assumed): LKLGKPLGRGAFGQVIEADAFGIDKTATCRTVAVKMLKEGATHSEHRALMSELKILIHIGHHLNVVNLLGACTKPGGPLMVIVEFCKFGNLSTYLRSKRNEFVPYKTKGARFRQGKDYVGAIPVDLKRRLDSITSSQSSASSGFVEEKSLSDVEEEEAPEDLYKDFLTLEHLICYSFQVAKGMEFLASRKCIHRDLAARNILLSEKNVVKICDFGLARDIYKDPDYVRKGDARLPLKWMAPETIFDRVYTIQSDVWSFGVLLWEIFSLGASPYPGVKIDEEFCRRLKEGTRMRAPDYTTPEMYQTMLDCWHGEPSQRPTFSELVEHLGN
Procedure: The compounds were assessed for VEGFR-2 inhibition activity using the Z′-LYTE-Tyr1 Peptide assay kit (according to the procedures recommended by the manufacturer Invitrogen, Cat. PV3190) [14]. Briefly, assays were performed in a total of 20 μL in 384-well plates using fluorescence resonance energy transfer technology. A Tyr1 substrate (coumarin-fluorescein double-labeled peptide) at 1.0 μM was incubated for 1 h with 4 μg/mL VEGFR-2, 10 μM ATP, and inhibitors at room temperature in 50 mM Hepes/Na (pH 7.5), 10 mM MgCl2, 2.0 mM MnCl2, 2.5 mM DTT, 0.10 mM orthovanadate, and 0.01% bovine serum albumin. […] After a second incubation of 1 hour, a stop reagent was added to each well.

HUVECs [3] = assay: MTS toxicity (cell viability) assay in HUVECs; assay type: cell-based, human; details: 24 h, control 2.33 ± 0.06 O.D., mean ± SEM
Procedure: as §1
HUVECs (2 × 10^5 cells/mL) were allowed to grow for 24 h and then incubated with the test compounds at a range concentration between 0.1 and 10 μM or control (0.1% DMSO) for 24 h. After the incubation period, cells were washed and their viability was assessed using Cell Titer 96 Aqueous ONE Solution Reagent MTS [3-(4,5-dimethylthiazol-2-yl)-5-(3-carboxymethoxyphenyl)-2-(4-sulfophenyl)-2H-tetrazolium] colorimetric assay (Promega, Madison, USA), according to the instructions provided by the manufacturer and as previously described. Optical density was measured at 492 nm. Three independent experiments were performed, and the results were expressed as mean ± SEM.

Structure (SMILES) | IC50 (VEGFR-2) [nM] | melting point [°C] | Formation of the active (phosphorylated) form of VEGFR-2 [1] | Effect on apoptosis (TUNEL) (HUVECs [2]) | Increase in apoptosis (TUNEL) comparing with untreated cells (HUVECs [2]; highest concentration tested (1 μM)) [%] | Viability of HUVEC (MTS optical density) (HUVECs [3]; 5.0 μM) [O.D.] | Viability of HUVEC (MTS optical density) (HUVECs [3]; 10 μM) [O.D.]
COc1ccc(NC(=O)Nc2ccc(Oc3ncnc4ccsc34)cc2)cc1 [Compound 2b, 1-(4-Methoxyphenyl)-3-[4-(thieno[3,2-d]pyrimidin-4-yloxy)phenyl]urea] | 188 |  | significantly decrease | increase in apoptosis |  | 1.84 ± 0.05 | 1.82 ± 0.04
N#Cc1ccc(NC(=O)Nc2ccc(Oc3ncnc4ccsc34)cc2)cc1 [Compound 2c, 1-(4-Cyanophenyl)-3-[4-(thieno[3,2-d]pyrimidin-4-yloxy)phenyl]urea] | 150 |  | did not significantly inhibit | increase in apoptosis |  |  | 1.96 ± 0.02
Cc1csc2c(Oc3ccc(NC(=O)Nc4ccccc4)cc3)ncnc12 [Compound 2d, 1-Phenyl-3-[4-(7-Methylthieno[3,2-d]pyrimidin-4-yloxy)phenyl]urea] | > 100000 | 285.7 to 287.3 |  |  |  |  | 
COc1ccc(NC(=O)Nc2ccc(Oc3ncnc4c(C)csc34)cc2)cc1 [Compound 2e, 1-(4-Methoxyphenyl)-3-[4-(7-methylthieno[3,2-d]pyrimidin-4-yloxy)phenyl]urea] | > 100000 | 248.4 to 249.6 |  |  |  |  | 

Continued, in another order:

IC50 (VEGFR-2) [nM] | melting point [°C] | Structure (SMILES) | Formation of the active (phosphorylated) form of VEGFR-2 [1] | Effect on apoptosis (TUNEL) (HUVECs [2]) | Increase in apoptosis (TUNEL) comparing with untreated cells (HUVECs [2]; highest concentration tested (1 μM)) [%] | Viability of HUVEC (MTS optical density) (HUVECs [3]; 5.0 μM) [O.D.] | Viability of HUVEC (MTS optical density) (HUVECs [3]; 10 μM) [O.D.]
199 |  | O=C(Nc1ccccc1)Nc1ccc(Oc2ncnc3ccsc23)cc1 [Compound 2a, 1-Phenyl-3-[4-(thieno[3,2-d]pyrimidin-4-yloxy)phenyl]urea] | significantly decrease | increase in apoptosis | 32.8 ± 1.23 | 2.00 ± 0.06 | 1.99 ± 0.03
> 100000 |  | Cc1csc2c(Oc3ccc(NC(=O)Nc4ccc(C#N)cc4)cc3)ncnc12 [Compound 2f, 1-(4-Cyanophenyl)-3-[4-(7-methylthieno[3,2-d]pyrimidin-4-yloxy)phenyl]urea] |  |  |  |  | 
